Results reported in the CheMixHub viscosity set.

Assay: xn = mol fraction of the nth substance listed

[Ca+2].[Cl-].[Cl-] + O
Settings | viscosity [mPa·s]
293.15 K, 101 kPa, x1 = 0.059 | 2.97
298.15 K, 101 kPa, x1 = 0.000396 | 0.8977
298.15 K, 101 kPa, x1 = 0.00043 | 0.8982
298.15 K, 101 kPa, x1 = 0.00081 | 0.9042
298.15 K, 101 kPa, x1 = 0.000844 | 0.9046
298.15 K, 101 kPa, x1 = 0.00106 | 0.9082
298.15 K, 101 kPa, x1 = 0.00107 | 0.9081
298.15 K, 101 kPa, x1 = 0.00123 | 0.9106
298.15 K, 101 kPa, x1 = 0.0013 | 0.9117
298.15 K, 101 kPa, x1 = 0.00147 | 0.9145
298.15 K, 101 kPa, x1 = 0.00151 | 0.9149
298.15 K, 101 kPa, x1 = 0.00175 | 0.9186
298.15 K, 101 kPa, x1 = 0.002367 | 0.9277
298.15 K, 101 kPa, x1 = 0.002527 | 0.9302
298.15 K, 101 kPa, x1 = 0.002586 | 0.9311
298.15 K, 101 kPa, x1 = 0.003329 | 0.9425
298.15 K, 101 kPa, x1 = 0.003395 | 0.9435
298.15 K, 101 kPa, x1 = 0.003497 | 0.945
298.15 K, 101 kPa, x1 = 0.003672 | 0.9476
298.15 K, 101 kPa, x1 = 0.004546 | 0.9609
298.15 K, 101 kPa, x1 = 0.004721 | 0.9637
298.15 K, 101 kPa, x1 = 0.005244 | 0.9719
298.15 K, 101 kPa, x1 = 0.006244 | 0.9873
298.15 K, 101 kPa, x1 = 0.007041 | 1
298.15 K, 101 kPa, x1 = 0.007167 | 1.002
298.15 K, 101 kPa, x1 = 0.007446 | 1.006
298.15 K, 101 kPa, x1 = 0.008695 | 1.027
298.15 K, 101 kPa, x1 = 0.009449 | 1.039
298.15 K, 101 kPa, x1 = 0.009885 | 1.046
298.15 K, 101 kPa, x1 = 0.01022 | 1.052
298.15 K, 101 kPa, x1 = 0.01042 | 1.055
298.15 K, 101 kPa, x1 = 0.01059 | 1.058
298.15 K, 101 kPa, x1 = 0.01077 | 1.061
298.15 K, 101 kPa, x1 = 0.01094 | 1.064
298.15 K, 101 kPa, x1 = 0.01192 | 1.081
298.15 K, 101 kPa, x1 = 0.01272 | 1.095
298.15 K, 101 kPa, x1 = 0.01378 | 1.114
298.15 K, 101 kPa, x1 = 0.01401 | 1.118
298.15 K, 101 kPa, x1 = 0.01513 | 1.139
298.15 K, 101 kPa, x1 = 0.01538 | 1.143
298.15 K, 101 kPa, x1 = 0.01928 | 1.219
298.15 K, 101 kPa, x1 = 0.02043 | 1.243
298.15 K, 101 kPa, x1 = 0.02048 | 1.244
298.15 K, 101 kPa, x1 = 0.02097 | 1.254
298.15 K, 101 kPa, x1 = 0.02327 | 1.304
298.15 K, 101 kPa, x1 = 0.02529 | 1.35
298.15 K, 101 kPa, x1 = 0.02589 | 1.364
298.15 K, 101 kPa, x1 = 0.0267 | 1.383
298.15 K, 101 kPa, x1 = 0.027 | 1.391
298.15 K, 101 kPa, x1 = 0.02942 | 1.451
298.15 K, 101 kPa, x1 = 0.02988 | 1.464
298.15 K, 101 kPa, x1 = 0.03066 | 1.484
298.15 K, 101 kPa, x1 = 0.03069 | 1.485
298.15 K, 101 kPa, x1 = 0.0311 | 1.496
298.15 K, 101 kPa, x1 = 0.03274 | 1.541
298.15 K, 101 kPa, x1 = 0.03315 | 1.553
298.15 K, 101 kPa, x1 = 0.03378 | 1.572
298.15 K, 101 kPa, x1 = 0.03442 | 1.59
298.15 K, 101 kPa, x1 = 0.03633 | 1.648
298.15 K, 101 kPa, x1 = 0.03656 | 1.654
298.15 K, 101 kPa, x1 = 0.03673 | 1.66
298.15 K, 101 kPa, x1 = 0.03831 | 1.711
298.15 K, 101 kPa, x1 = 0.03856 | 1.719
298.15 K, 101 kPa, x1 = 0.04162 | 1.824
298.15 K, 101 kPa, x1 = 0.04322 | 1.883
298.15 K, 101 kPa, x1 = 0.04455 | 1.933
298.15 K, 101 kPa, x1 = 0.04537 | 1.967
298.15 K, 101 kPa, x1 = 0.04781 | 2.068
298.15 K, 101 kPa, x1 = 0.04866 | 2.105
298.15 K, 101 kPa, x1 = 0.0498 | 2.157
298.15 K, 101 kPa, x1 = 0.0506 | 2.194
298.15 K, 101 kPa, x1 = 0.0536 | 2.342
298.15 K, 101 kPa, x1 = 0.05494 | 2.412
298.15 K, 101 kPa, x1 = 0.05842 | 2.611
298.15 K, 101 kPa, x1 = 0.06081 | 2.761
298.15 K, 101 kPa, x1 = 0.06128 | 2.791
298.15 K, 101 kPa, x1 = 0.065 | 3.054
298.15 K, 101 kPa, x1 = 0.06579 | 3.114
298.15 K, 101 kPa, x1 = 0.06654 | 3.173
298.15 K, 101 kPa, x1 = 0.06668 | 3.182
298.15 K, 101 kPa, x1 = 0.07055 | 3.515
298.15 K, 101 kPa, x1 = 0.07902 | 4.414
298.15 K, 101 kPa, x1 = 0.08019 | 4.563
298.15 K, 101 kPa, x1 = 0.08048 | 4.6
298.15 K, 101 kPa, x1 = 0.08806 | 5.733
298.15 K, 101 kPa, x1 = 0.08818 | 5.754
298.15 K, 101 kPa, x1 = 0.09192 | 6.437
298.15 K, 101 kPa, x1 = 0.09327 | 6.707
298.15 K, 101 kPa, x1 = 0.09562 | 7.209
298.15 K, 101 kPa, x1 = 0.09975 | 8.198
298.15 K, 101 kPa, x1 = 0.1012 | 8.586
298.15 K, 101 kPa, x1 = 0.1071 | 10.34
298.15 K, 101 kPa, x1 = 0.1099 | 11.29
298.15 K, 101 kPa, x1 = 0.1131 | 12.5
298.15 K, 101 kPa, x1 = 0.1167 | 14.03
298.15 K, 101 kPa, x1 = 0.1168 | 14.08
298.15 K, 101 kPa, x1 = 0.1185 | 14.84
298.15 K, 101 kPa, x1 = 0.1243 | 17.82
298.15 K, 101.3 kPa, x1 = 0.03478 | 1.609
298.15 K, 101.3 kPa, x1 = 0.05127 | 2.238

NCCN + OCCCCO
viscosity [mPa·s], 101 kPa
Settings | 293.15 K | 298.15 K | 303.15 K | 308.15 K | 313.15 K | 318.15 K
x1 = 0.0733 | 100 | 74.8 | 55.2 | 43.2 | 33.4 | –
x1 = 0.1427 | 101 | 75.2 | 55.3 | 44.5 | 33.8 | –
x1 = 0.2094 | 98.8 | 72.8 | 53.1 | 42.5 | 32 | 28.8
x1 = 0.2728 | 92.3 | 67.6 | 49.1 | 39.1 | 29.5 | 25.8
x1 = 0.3334 | 82.3 | 60.1 | 43.5 | 34.4 | 25.7 | 22.6
x1 = 0.3913 | 69.3 | 50.5 | 36.8 | 29.2 | 22 | 19.3
x1 = 0.4467 | 55.9 | 40.8 | 29.9 | 23.7 | 18.2 | 16.1
x1 = 0.4999 | 42.7 | 31.5 | 23.4 | 19 | 14.5 | 12.9
x1 = 0.551 | 32.1 | 23.8 | 18 | 14.6 | 11.3 | 10.3
x1 = 0.5999 | 23.8 | 17.9 | 13.7 | 11.3 | 8.84 | 8.14
x1 = 0.6469 | 17.4 | 13.2 | 10.2 | 8.63 | 7.05 | 6.33
x1 = 0.6921 | 12.7 | 9.92 | 7.8 | 6.62 | 5.34 | 4.99
x1 = 0.7358 | 9.34 | 7.44 | 5.91 | 5.11 | 4.17 | 3.95
x1 = 0.7777 | 7.02 | 5.61 | 4.57 | 4 | 3.28 | 3.13
x1 = 0.8181 | 5.28 | 4.3 | 3.53 | 3.15 | 2.61 | 2.51
x1 = 0.8572 | 4.06 | 3.38 | 2.78 | 2.5 | 2.1 | 2.02
x1 = 0.9311 | 2.51 | 2.11 | 1.78 | 1.63 | 1.41 | 1.37
